Our source for the Kd values is ChEMBL document CHEMBL1134404, “Bisubstrate analogue inhibitors of 6-hydroxymethyl-7,8-dihydropterin pyrophosphokinase: synthesis and biochemical and crystallographic studies” (J Med Chem, 2001).

A short description of this assay: Compound was tested for the binding affinity towards HPPK Receptor without Mg 2. Details: species or system Escherichia coli.

`Nc1nc2ncc(COP(=O)(O)OP(=O)(O)OP(=O)(O)OP(=O)(O)OC[C@H]3O[C@@H](n4cnc5c(N)ncnc54)[C@H](O)[C@@H]3O)nc2c(=O)[nH]1` gave a Kd of 1.93 µM.
